Article PMC10817917, “Alkyl deoxyglycoside-polymyxin combinations against critical priority carbapenem-resistant gram-negative bacteria” (Scientific Reports, 2024)
Like-named read-outs stand apart in the source and are kept apart here.

Legend:
[1] = test system: A. baumannii CQ4322; assay: Broth microdilution MIC/MBC, glycosides with or without polymyxins; assay type: cell-based, Acinetobacter baumannii; conditions: for MIC: Acinetobacter baumannii, CQ4322
[2] = test system: E. coli NCTC 13846; assay: as above; assay type: cell-based, Escherichia coli; conditions: strain B
[3] = test system: HEK-293T cells; assay: Resazurin cell viability assay (cytotoxicity); assay type: cell-based, human; conditions: 72 h, read-out: IC50
Outline: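 HEK-293T and Caco-2 cells (1.5 × 10^4/well, RPMI 1640 with 10% FBS) exposed 72 h at 37 °C to glycosides at final 100 to 10 µM, alone or with PMB or colistin at final 0.5, 0.25 or 0.125 µg/mL; max DMSO 0.33%. Resazurin added 4 h, read 570/600 nm; IC50 from dose-response fits, mean ± SD of three replicates.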

[4] = test system: P. aeruginosa CQ4924; assay: Broth microdilution MIC, glycosides with or without polymyxins; assay type: cell-based, Pseudomonas aeruginosa; conditions: for MIC: Pseudomonas aeruginosa, CQ4924
[5] = test system: K. pneumoniae CQ4921; assay: Broth microdilution MIC/MBC, glycosides with or without polymyxins; assay type: cell-based, Klebsiella pneumoniae; conditions: for MIC: Klebsiella pneumoniae, CQ4921
[6] = test system: Bacillus anthracis (Sterne, ovine and pathogenic forms), Enterococcus faecalis and Bacillus cereus; conditions: Gram-positive bacteria; cited from earlier work
[7] = test system: K. pneumoniae CQ1947; assay: Broth microdilution MIC, glycosides with or without polymyxins; assay type: cell-based, Klebsiella pneumoniae; conditions: for MIC: Klebsiella pneumoniae, CQ1947
[8] = alone, read-out: MICA (MIC of each compound individually)
[9] = combination with the lowest FICI
[10] = compound + colistin, lowest FICI

## CCCCCCCCCCCCO[C@@H]1O[C@H](C)C[C@H](O)[C@H]1O [Compound 2, dodecyl 4,6-dideoxy-α/β-D-xylo-hexopyranoside]
[1]; agent alone, no adjuvant (polymyxin conc. 0), strain G, read-out: MIC
  MIC: > 100 µg/mL
[1]; [8]
  MIC: > 100 µg/mL
[1]; Cpd conc. 0.4 μg/mL, strain G
  MIC of colistin in combination with the compound: > 0.5 µg/mL
[1]; Cpd conc. 0.8 μg/mL, strain G
  MIC of colistin in combination with the compound: 0.5 µg/mL
[1]; Cpd conc. 3.125 μg/mL, strain G
  MIC of colistin in combination with the compound: 0.25 µg/mL
[1]; Cpd conc. 6.25 μg/mL, strain G
  MIC of colistin in combination with the compound: 0.125 µg/mL
[1]; Cpd conc. 12.5 μg/mL, strain G
  MIC of colistin in combination with the compound: 0.125 µg/mL
[1]; Cpd conc. […], strain G
  MIC of colistin in combination with the compound: 0.5 µg/mL
[1]; PMB 0.5 μg/mL, strain G
  MIC of compound in combination with PMB: 0.8 µg/mL
[1]; colistin 0.06 μg/mL, strain G
  MIC of compound in combination with colistin: > 100 µg/mL
[1]; colistin 0.125 μg/mL, strain G
  MBC of compound in combination with colistin: 12.5 µg/mL
  MIC of compound in combination with colistin: 6.3 µg/mL
[1]; colistin 0.25 μg/mL, strain G
  MIC of compound in combination with colistin: 3.1 µg/mL
[1]; colistin 0.5 μg/mL, strain G
  MIC of compound in combination with colistin: 0.8 µg/mL
[1]; [9]
  MICA(A + B) (MIC of compound in combination with colistin): 6.25 µg/mL
  MICB(A + B) (MIC of colistin in combination with compound): 0.125 µg/mL
[1]; [10]
  FICI: 0.28
[2]; Cpd conc. 0.4 μg/mL
  MIC of colistin in combination with the compound: > 0.5 µg/mL
[2]; Cpd conc. 0.8 μg/mL
  MIC of colistin in combination with the compound: > 0.5 µg/mL
[2]; Cpd conc. 3.125 μg/mL
  MIC of colistin in combination with the compound: > 0.5 µg/mL
[2]; Cpd conc. 6.25 μg/mL
  MIC of colistin in combination with the compound: > 0.5 µg/mL
[2]; Cpd conc. 12.5 μg/mL
  MIC of colistin in combination with the compound: > 0.5 µg/mL
[2]; Cpd conc. […]
  MIC of colistin in combination with the compound: > 0.5 µg/mL
[2]; Escherichia coli, NCTC13846, agent alone, no adjuvant (polymyxin conc. 0), read-out: MIC
  MIC: > 100 µg/mL
[2]; PMB 0.25 μg/mL
  MIC of compound in combination with PMB: > 100 µg/mL
[2]; PMB 0.5 μg/mL
  MIC of compound in combination with PMB: > 100 µg/mL
[2]; colistin 0.06 μg/mL
  MIC of compound in combination with colistin: > 100 µg/mL
[2]; colistin 0.125 μg/mL
  MBC of compound in combination with colistin: > 100|> 100 μg/mL
  MIC of compound in combination with colistin: > 100|> 100 μg/mL
[2]; colistin 0.25 μg/mL
  MIC of compound in combination with colistin: > 100 µg/mL
[2]; colistin 0.5 μg/mL
  MIC of compound in combination with colistin: > 100 µg/mL
[3]; Homo sapiens, HEK-293T, Colistin 0.25 μg/mL
  IC50: 80.7 ± 6.08 µM
[3]; Homo sapiens, HEK-293T, Colistin 0.5 μg/mL
  IC50: 84.1 ± 2.87 µM
[3]; Homo sapiens, HEK-293T, No polymyxin
  IC50: 84.2 ± 2.59 µM
[3]; Homo sapiens, HEK-293T, PMB 0.25 μg/mL
  IC50: 84.5 ± 1.52 µM
[3]; Homo sapiens, HEK-293T, PMB 0.5 μg/mL
  IC50: 82 ± 2.9 µM
[3]; Homo sapiens, HEK-293T, tested alone (no polymyxin adjuvant)
  IC50: 26.6 µg/mL
[3]; No polymyxin
  IC50: 84.2 µM
[4]; Cpd conc. 0.4 μg/mL, strain H
  MIC of colistin in combination with the compound: > 0.5 µg/mL
[4]; Cpd conc. 0.8 μg/mL, strain H
  MIC of colistin in combination with the compound: > 0.5 µg/mL
[4]; Cpd conc. 3.125 μg/mL, strain H
  MIC of colistin in combination with the compound: > 0.5 µg/mL
[4]; Cpd conc. 6.25 μg/mL, strain H
  MIC of colistin in combination with the compound: 0.5 µg/mL
[4]; Cpd conc. 12.5 μg/mL, strain H
  MIC of colistin in combination with the compound: 0.5 µg/mL
[4]; Cpd conc. […], strain H
  MIC of colistin in combination with the compound: > 0.5 µg/mL
[4]; PMB 0.25 μg/mL, strain H
  MIC of compound in combination with PMB: > 100 µg/mL
[4]; agent alone, no adjuvant (polymyxin conc. 0), strain H, read-out: MIC
  MIC: > 100 µg/mL
[4]; [8]
  MIC: > 100 µg/mL
[4]; colistin 0.06 μg/mL, strain H
  MIC of compound in combination with colistin: > 100 µg/mL
[4]; colistin 0.125 μg/mL, strain H
  MIC of compound in combination with colistin: > 100 µg/mL
[4]; colistin 0.25 μg/mL, strain H
  MIC of compound in combination with colistin: > 100 µg/mL
[4]; colistin 0.5 μg/mL, strain H
  MIC of compound in combination with colistin: 6.3 µg/mL
[4]; [9]
  MICA(A + B) (MIC of compound in combination with colistin): 6.25 µg/mL
  MICB(A + B) (MIC of colistin in combination with compound): 0.5 µg/mL
[4]; compound + colistin
  Interpretation (of FICI): Additive (from 0.5 to 1.0 were additive)
[4]; [10]
  FICI: 0.53
[5]; Cpd conc. 0.4 μg/mL, strain C
  MIC of colistin in combination with the compound: 0.5 µg/mL
[5]; Cpd conc. 0.8 μg/mL, strain C
  MIC of colistin in combination with the compound: 0.5 µg/mL
[5]; Cpd conc. 3.125 μg/mL, strain C
  MIC of colistin in combination with the compound: 0.125 µg/mL
[5]; Cpd conc. 6.25 μg/mL, strain C
  MIC of colistin in combination with the compound: 0.125 µg/mL
[5]; Cpd conc. 12.5 μg/mL, strain C
  MIC of colistin in combination with the compound: 0.125 µg/mL
[5]; Cpd conc. […], strain C
  MIC of colistin in combination with the compound: 0.5 µg/mL
[5]; agent alone, no adjuvant (polymyxin conc. 0), strain C, read-out: MIC
  MIC: > 100 µg/mL
[5]; [8]
  MIC: > 100 µg/mL
[5]; PMB 0.5 μg/mL, strain C
  MIC of compound in combination with PMB: ≤ 0.1 µg/mL
[5]; colistin 0.06 μg/mL, strain C
  MIC of compound in combination with colistin: > 100 µg/mL
[5]; colistin 0.125 μg/mL, strain C
  MBC of compound in combination with colistin: 6.3 µg/mL
  MIC of compound in combination with colistin: 3.1 µg/mL
[5]; colistin 0.25 μg/mL, strain C
  MIC of compound in combination with colistin: 3.1 µg/mL
[5]; colistin 0.5 μg/mL, strain C
  MIC of compound in combination with colistin: ≤ 0.1 µg/mL
[5]; [9]
  MICA(A + B) (MIC of compound in combination with colistin): 3.125 µg/mL
  MICB(A + B) (MIC of colistin in combination with compound): 0.125 µg/mL
[5]; compound + colistin
  Interpretation (of FICI): Synergy (Values ≤ 0.5 were considered synergistic)
[5]; [10]
  FICI: 0.27
[6]
  MIC: > 405 µM
[7]; Cpd conc. 0.4 μg/mL, strain F
  MIC of colistin in combination with the compound: > 0.5 µg/mL
[7]; Cpd conc. 0.8 μg/mL, strain F
  MIC of colistin in combination with the compound: 0.5 µg/mL
[7]; Cpd conc. 3.125 μg/mL, strain F
  MIC of colistin in combination with the compound: 0.5 µg/mL
[7]; Cpd conc. 6.25 μg/mL, strain F
  MIC of colistin in combination with the compound: 0.5 µg/mL
[7]; Cpd conc. 12.5 μg/mL, strain F
  MIC of colistin in combination with the compound: 0.5 µg/mL
[7]; Cpd conc. […], strain F
  MIC of colistin in combination with the compound: 0.5 µg/mL
[7]; agent alone, no adjuvant (polymyxin conc. 0), strain F, read-out: MIC
  MIC: > 100 µg/mL
[7]; [8]
  MIC: > 100 µg/mL
[7]; PMB 0.25 μg/mL, strain F
  MIC of compound in combination with PMB: > 100 µg/mL
[7]; PMB 0.5 μg/mL, strain F
  MIC of compound in combination with PMB: 0.8 µg/mL
[7]; colistin 0.06 μg/mL, strain F
  MIC of compound in combination with colistin: > 100 µg/mL
[7]; colistin 0.125 μg/mL, strain F
  MIC of compound in combination with colistin: > 100 µg/mL
[7]; colistin 0.25 μg/mL, strain F
  MIC of compound in combination with colistin: > 100 µg/mL
[7]; colistin 0.5 μg/mL, strain F
  MIC of compound in combination with colistin: 0.8 µg/mL
[7]; [9]
  MICA(A + B) (MIC of compound in combination with colistin): 0.8 µg/mL
  MICB(A + B) (MIC of colistin in combination with compound): 0.5 µg/mL
[7]; compound + colistin
  Interpretation (of FICI): Indifferent (1.0 to 4.0 were indifferent)
[7]; [10]
  FICI: 1.004
